In ChEMBL document CHEMBL4689842, “EUbOPEN Chemogenomics Library wave 1” (2021):

Experiments:
Assay type in all cases: toxicity, cell-based
Fibroblast = assay: Incucyte cell viability with human fibroblast; details: 10 µM, compound concentration 10 uM
HEK-293T = assay: Incucyte cell viability with HEK293T; details: human, 10 µM, compound concentration 10 uM
U2OS = assay: Incucyte cell viability with U2OS; details: human, 10 µM, compound concentration 10 uM
[1] = 0 h, replicate number 1, timepoint 0 hours
[2] = 6 h, replicate number 1, timepoint 6 hours
[3] = 6 h, replicate number 2, timepoint 6 hours
[4] = 12 h, replicate number 1, timepoint 12 hours
[5] = 18 h, replicate number 1, timepoint 18 hours
[6] = 18 h, replicate number 2, timepoint 18 hours
[7] = 24 h, replicate number 1, timepoint 24 hours
[8] = 24 h, replicate number 2, timepoint 24 hours
[9] = 0 h, replicate number 2, timepoint 0 hours
[10] = 12 h, replicate number 2, timepoint 12 hours
Also: filed as whole numbers so only -1 and 0 and 1 occur.

Row | SMILES | Growth Rate (Fibroblast; [1]) | Growth Rate (Fibroblast; [2]) | Growth Rate (Fibroblast; [3]) | Growth Rate (Fibroblast; [4]) | Growth Rate (Fibroblast; [5]) | Growth Rate (Fibroblast; [6]) | Growth Rate (Fibroblast; [7]) | Growth Rate (Fibroblast; [8]) | Growth Rate (HEK-293T; [1]) | Growth Rate (HEK-293T; [9]) | Growth Rate (HEK-293T; [2]) | Growth Rate (HEK-293T; [4]) | Growth Rate (HEK-293T; [5]) | Growth Rate (HEK-293T; [7]) | Growth Rate (U2OS; [1]) | Growth Rate (U2OS; [2]) | Growth Rate (U2OS; [3]) | Growth Rate (U2OS; [4]) | Growth Rate (U2OS; [5]) | Growth Rate (U2OS; [7]) | other results
1 | Cc1nnc2c3ccccc3c(N[C@@H](C)[C@H](c3ccccc3)N(C)C)nn12 | 0 | 1 | 0 | 1 | 1 | 0 | 1 | 0 | 0 | 1 | 0 | 0 | 0 | 0 | 0 | 0 | 1 | 1 | 1 | 1 | –
2 | Cl.O=C([C@@H](Cc1cccc(C(F)(F)F)c1)NS(=O)(=O)c1cc(F)c2c(c1)CCNC2)N1CCCC1 | – | – | – | 1 | – | 1 | 1 | – | 0 | 1 | – | – | – | – | 0 | 0 | 1 | 1 | 0 | 1 | Growth Rate (Fibroblast; [9]): 1; Growth Rate (HEK-293T; [3]): 1; Growth Rate (HEK-293T; [10]): 1; Growth Rate (HEK-293T; [8]): 1; Growth Rate (U2OS; [6]): 1
3 | O=C1NCN(c2ccccc2)C12CCN(CC1COc3ccccc3O1)CC2 (stereo not drawn) [SPIROXATRINE] | 0 | 1 | 0 | 1 | 0 | – | 1 | 0 | 1 | 0 | 0 | 0 | 0 | 0 | – | – | 1 | 1 | 1 | 1 | Growth Rate (Fibroblast; [9]): 1; Growth Rate (Fibroblast; [10]): 0; Growth Rate (U2OS; [9]): 0
4 | CCCCCCCCCCCCCCCCOC[C@H](COP(=O)([O-])OCC[N+](C)(C)C)OC(C)=O | 0 | 1 | 0 | 1 | 1 | 0 | 1 | 0 | 1 | 0 | 1 | 1 | 1 | 1 | – | 0 | – | 1 | 0 | 1 | Growth Rate (U2OS; [10]): 0; Growth Rate (U2OS; [6]): 1
5 | N[C@@H](Cc1cc(I)c(Oc2ccc(O)c(I)c2)c(I)c1)C(=O)O [LIOTHYRONINE] | 0 | 0 | – | 0 | 0 | 1 | 0 | 1 | 0 | – | 1 | 1 | 1 | 1 | 0 | – | 1 | 1 | 1 | 1 | Growth Rate (HEK-293T; [10]): 0; Growth Rate (HEK-293T; [6]): 0; Growth Rate (HEK-293T; [8]): 0
6 | Cc1oncc1C(=O)Nc1ccc(C(F)(F)F)cc1 [LEFLUNOMIDE] | 0 | 1 | 0 | 1 | 1 | 0 | 1 | 0 | 1 | 0 | 0 | 1 | 1 | 0 | – | – | 1 | 1 | 1 | 1 | Growth Rate (Fibroblast; [10]): 0; Growth Rate (HEK-293T; [3]): 1; Growth Rate (HEK-293T; [6]): 0; Growth Rate (HEK-293T; [8]): 1; Growth Rate (U2OS; [9]): 0
7 | COc1cc(OC)cc(-c2noc(N3CCN(C)C4(CCN(c5ccnc(C)c5)CC4)C3)n2)c1 | – | 0 | 1 | 1 | 1 | 0 | 0 | – | – | – | 0 | – | – | 1 | 0 | 0 | 1 | 0 | 0 | 0 | Growth Rate (Fibroblast; [9]): 0; Growth Rate (Fibroblast; [10]): 0; Growth Rate (HEK-293T; [10]): 1; Growth Rate (U2OS; [10]): 1; Growth Rate (U2OS; [6]): 1; Growth Rate (U2OS; [8]): 1
8 | NC(CCP(=O)(O)O)C(=O)O (racemic) | 0 | – | – | – | – | 1 | 1 | – | 0 | – | 1 | 1 | 1 | 1 | 0 | – | 0 | 1 | 1 | 1 | –
9 | Cc1cnc(Nc2ccc(F)cc2Cl)nc1-c1c[nH]c(C(=O)N[C@H](CO)c2cccc(Cl)c2)c1 | – | 0 | – | 1 | 0 | 1 | 0 | 1 | 0 | – | 0 | 0 | 0 | 0 | 0 | 0 | – | 0 | 0 | 0 | Growth Rate (Fibroblast; [9]): 0; Growth Rate (U2OS; [9]): 1
10 | COc1cc2c(CCNC(C)=O)c[nH]c2cc1Cl | 0 | 1 | – | 1 | 1 | – | 1 | – | 0 | – | 1 | 1 | 1 | 1 | 0 | – | 1 | 1 | 0 | 1 | Growth Rate (HEK-293T; [3]): 0; Growth Rate (HEK-293T; [10]): 0; Growth Rate (U2OS; [6]): 1
11 | C[C@@H]1CN(c2cc(-c3n[nH]c4ccc(OC5(C)CC5)cc34)ncn2)C[C@H](C)O1 [MLi-2] | 0 | 1 | 0 | 1 | 1 | 0 | 0 | – | 0 | 1 | 0 | 1 | 1 | 1 | – | 1 | – | 1 | 1 | 1 | Growth Rate (Fibroblast; [10]): 0; Growth Rate (HEK-293T; [8]): 0; Growth Rate (U2OS; [9]): 0
12 | CCC[C@H](Oc1cc(C)c(-n2cc(C(F)(F)F)cn2)c(C)c1)c1ccc(C(=O)NCCC(=O)O)cc1 [PF-06291874] | 0 | 1 | – | 0 | 0 | – | 1 | – | 1 | 0 | 0 | 0 | 0 | 0 | – | – | 0 | 1 | 0 | 1 | Growth Rate (U2OS; [6]): 1
13 | CCCNS(=O)(=O)Nc1ncnc(OCCOc2ncc(Br)cn2)c1-c1ccc(Br)cc1 | 0 | 0 | – | 0 | 1 | – | 0 | – | 0 | – | 0 | 0 | 0 | 0 | – | 0 | – | 0 | 0 | 0 | –
